Source: the supplement of paper PMC10307832

Assays:
Assay in all cases: relative viability (nuclei count vs DMSO), 5 days (fraction); higher = more cells survive
BAM7 + AZD7762 = compound: CCOC1=CC=CC=C1N=NC2=C(NN(C2=O)C3=NC(=CS3)C4=CC=CC=C4)C [BAM7] + NC(=O)Nc1cc(-c2cccc(F)c2)sc1C(=O)N[C@H]1CCCNC1 [AZD7762] (partner 0.2 µM)
Outline: (§1)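 The day after seeding in 1536-well plates, lung cancer cell lines were treated by pin tool with a single drug, or with a fixed anchor-drug dose together with five library-drug doses (not always all listed) in √10 steps. After 5 days, a combined fix-and-stain solution (final 0.05% Triton X-100, 1% formaldehyde, 1 ug/ml Hoechst) was added. Nuclei counted on 4× images gave relative viability as treated counts over vehicle counts, reported as the median of duplicate plates.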

BAM7 + Tozasertib = compound: CCOC1=CC=CC=C1N=NC2=C(NN(C2=O)C3=NC(=CS3)C4=CC=CC=C4)C [BAM7] + Cc1cc(Nc2cc(N3CCN(C)CC3)nc(Sc3ccc(NC(=O)C4CC4)cc3)n2)n[nH]1 [Tozasertib] (partner 0.1 µM)
Outline: as §1

BAM7 + Pemetrexed = compound: CCOC1=CC=CC=C1N=NC2=C(NN(C2=O)C3=NC(=CS3)C4=CC=CC=C4)C [BAM7] + Nc1nc2[nH]cc(CCc3ccc(C(=O)N[C@@H](CCC(=O)O)C(=O)O)cc3)c2c(=O)[nH]1 [Pemetrexed] (partner 0.2 µM)
Outline: as §1

[1] = compound: CCn1c(-c2nonc2N)nc2c(C#CC(C)(C)O)ncc(OC[C@H]3CCCNC3)c21 + N=C(N)NC(=N)NCCc1ccccc1 [Phenformin] (partner 250 µM)
Outline: as §1

| Cell Line | relative viability (BAM7 + AZD7762; first compound 0.5 µM) | relative viability (BAM7 + AZD7762; first compound 5 µM) | relative viability (BAM7 + AZD7762; first compound 15.81 µM) | relative viability (BAM7 + AZD7762; first compound 50 µM) | relative viability (BAM7 + Tozasertib; first compound 0.5 µM) | relative viability (BAM7 + Tozasertib; first compound 5 µM) | relative viability (BAM7 + Tozasertib; first compound 15.81 µM) | relative viability (BAM7 + Tozasertib; first compound 50 µM) | relative viability (BAM7 + Pemetrexed; first compound 0.5 µM) | relative viability (BAM7 + Pemetrexed; first compound 5 µM) | relative viability (BAM7 + Pemetrexed; first compound 15.81 µM) | relative viability (BAM7 + Pemetrexed; first compound 50 µM) | relative viability ([1]; first compound 0.01 µM) | relative viability ([1]; first compound 0.03162 µM) | relative viability ([1]; first compound 0.1 µM) | relative viability ([1]; first compound 0.3162 µM) | relative viability ([1]; first compound 1 µM) |
| --- | --- | --- | --- | --- | --- | --- | --- | --- | --- | --- | --- | --- | --- | --- | --- | --- | --- |
| LC-2-ad | 0.916 | 0.832 | 0.832 | 0.805 | 0.501 | 0.424 | 0.466 | 0.451 | 0.297 | 0.277 | 0.293 | 0.29 | 0.571 | 0.523 | 0.556 | 0.537 | 0.614 |
| LCLC-97TM1 | 0.222 | 0.172 | 0.29 | 0.252 | 0.207 | 0.442 | 0.261 | 0.172 | 0.19 | 0.147 | – | 0.159 | 0.375 | 0.49 | 0.444 | 0.435 | 0.427 |
| LCLC-103H | 0.825 | 0.88 | 0.725 | 0.781 | 0.445 | 0.513 | 0.402 | 0.51 | 0.524 | 0.491 | 0.487 | 0.444 | 0.323 | 0.355 | 0.33 | 0.329 | 0.327 |
| LK-2 | 0.407 | 0.472 | 0.515 | 0.404 | 0.173 | 0.174 | 0.15 | 0.173 | 0.277 | 0.249 | 0.32 | 0.266 | 0.515 | 0.392 | – | – | 0.455 |
| LOU-NH91 | 0.796 | 0.794 | 0.75 | 0.793 | 0.667 | 0.702 | 0.674 | 0.689 | 0.347 | 0.436 | 0.392 | 0.346 | 0.683 | 0.566 | 0.686 | 0.607 | 0.635 |
| LU99A | 0.371 | 0.438 | 0.35 | 0.293 | 0.273 | 0.275 | 0.288 | 0.266 | 0.146 | 0.18 | 0.173 | 0.198 | 0.847 | 0.839 | 0.774 | 0.748 | 0.837 |
| LXF-289 | 1.12 | 1.17 | 1.13 | 1.04 | 0.206 | 0.215 | 0.183 | 0.19 | 1.01 | 0.994 | 0.918 | 0.865 | 0.511 | 0.54 | 0.507 | 0.511 | 0.534 |
| NCI-H23 | 0.165 | 0.35 | 0.287 | 0.255 | 0.245 | 0.367 | 0.288 | 0.256 | 0.832 | 0.851 | 0.622 | 0.709 | 0.729 | 0.783 | 0.817 | 0.8 | 0.781 |
| NCI-H520 | – | – | – | – | 0.416 | 0.51 | 0.436 | 0.405 | 0.696 | 0.776 | 0.626 | 0.569 | 0.424 | 0.561 | 0.303 | 0.236 | 0.233 |
| NCI-H661 | – | – | – | – | 0.376 | 0.361 | 0.359 | 0.358 | 0.949 | 0.973 | 0.921 | 0.917 | 0.277 | 0.259 | 0.265 | 0.145 | 0.239 |
